In ChEMBL document CHEMBL5725495, “Heterocyclylamines as PI3K inhibitors” (2017):

Assay: A2 PI3Kdelta Scintillation Proximity Assay: Lipid kinase substrate, phosphoinositol-4,5-bisphosphate (PIP2), are purchased from Echelon Biosciences (Salt Lake City, Utah). PI3K isoforms α, β, δ and γ are purchased from Millipore (Bedford, Mass.). ATP, MgCl2, DTT, EDTA, MOPS and CHAPS are purchased from Sigma-Aldrich (St. Louis, Mo.). The kinase reaction are conducted in clear-bottom 96-well plate from Thermo Fisher Scientific in a final volume of 24 μL. Inhibitors are first diluted serially in DMSO and added to the plate wells before the addition of other reaction components. The final concentration of DMSO in the assay is 0.5%. The PI3K assays are carried out at room temperature in 20 mM MOPS, pH 6.7, 10 mM MgCl2, 5 mM DTT and CHAPS 0.03%. The reaction mixture is prepared containing 50 μM PIP2, kinase and varying concentration of inhibitors. Reactions are initiated by the addition of ATP containing 2.2 μCi [γ-33P]ATP to a final concentration of 1000 μM. The final concentration of PI3K isoforms α, β, δ and γ in the assay were 1.3, 9.4, 2.9 and 10.8 nM, respectively. Reactions are incubated for 180 minutes and terminated by the addition of 100 μL of 1 M potassium phosphate pH 8.0, 30 mM EDTA quench buffer. A 100 μL aliquot of the reaction solution are then transferred to 96-well Millipore MultiScreen IP 0.45 μm PVDF filter plate (The filter plate is prewetted with 200 μL 100% ethanol, distilled water, and 1 M potassium phosphate pH 8.0, respectively). The filter plate is aspirated on a Millipore Manifold under vacuum and washed with 18×200 μL wash buffer containing 1 M potassium phosphate pH 8.0 and 1 mM ATP. After drying by aspiration and blotting, the plate is air dried in an incubator at 37° C. overnight. Packard TopCount adapter (Millipore) is then attached to the plate followed with addition of 120 μL Microscint 20 scintillation cocktail (Perkin Elmer) in each well. After the plate sealing, the radioactivity of the product is determined by scintillation counting on Topcount (Perkin-Elmer). IC50 determination is performed by fitting the curve of percent control activity versus the log of the inhibitor concentration using the GraphPad Prism 3.0 software.
Design: species or system Homo sapiens

Row | Compound | IC50 [µM]
1 | CCOc1c([C@H](C)n2nc(C)c3c(N)ncnc32)cc(Cl)c(C#N)c1C1CN(C(C)CO)C1 (stereo partly drawn) | < 0.01
2 | CCOc1c([C@@H](C)n2nc(C)c3c(N)ncnc32)cc(Cl)c(C#N)c1C1CN(C(C)CO)C1 (stereo partly drawn) | < 0.01
3 | COc1c([C@@H](C)n2nc(C)c3c(N)ncnc32)cc(Cl)c(C#N)c1C1CN(C2CCOC2)C1 (stereo partly drawn) | < 0.01
4 | COc1c(C(C)n2nc(C)c3c(N)ncnc32)cc(Cl)c(C)c1-c1ccc(C(=O)N(C)C)nc1 (stereo not drawn) | < 0.01
5 | COc1c([C@@H](C)n2nc(C)c3c(N)ncnc32)cc(Cl)c(C#N)c1C1CN(CC2CCOC2)C1 (stereo partly drawn) | < 0.01
6 | CCOc1c([C@H](C)n2nc(C)c3c(N)ncnc32)cc(Cl)c(C#N)c1C1CN(CCOC)C1 | < 0.01
7 | CCOc1c(C(C)n2nc(C)c3c(N)ncnc32)cc(Cl)c(C)c1-c1ccc(C(=O)N(C)C)nc1 (stereo not drawn) | < 0.01
8 | COc1c(C(C)n2cc(C)c3c(N)ncnc32)cc(Cl)c(C#N)c1C1CN(C(C)C)C1 (stereo not drawn) | < 0.01
9 | COc1c([C@H](C)n2nc(C)c3c(N)ncnc32)cc(Cl)c(C#N)c1C1CN(CC2CCOC2)C1 (stereo partly drawn) | < 0.01

Now from value to molecule:

Row | IC50 [µM] | Compound
10 | < 0.01 | COc1c(C(C)n2nc(C)c3c(N)ncnc32)cc(Cl)c(C)c1C1CN(C[C@H](C)O)C1 (stereo partly drawn)
11 | < 0.01 | COc1c(C(C)n2nc(C(F)F)c3c(N)ncnc32)cc(C#N)c(C)c1C1CN(C[C@H](C)O)C1 (stereo partly drawn)
12 | < 0.01 | COc1c(C(C)n2nc(C)c3c(N)ncnc32)cc(Cl)c(C#N)c1C1CN(CCO)C1 (stereo not drawn)
13 | < 0.01 | COc1c([C@@H](C)n2nc(C(F)F)c3c(N)ncnc32)cc(Cl)c(F)c1C1CN(C)C1
14 | < 0.01 | COc1c([C@@H](C)n2nc(C)c3c(N)ncnc32)cc(Cl)c(C#N)c1C1CN(C(C)CO)C1 (stereo partly drawn)
15 | < 0.01 | CCOc1c(C(C)n2nc(C)c3c(N)ncnc32)cc(Cl)c(F)c1C1CN(C[C@H](C)O)C1 (stereo partly drawn)
16 | < 0.01 | COc1c([C@H](C)n2nc(C)c3c(N)ncnc32)cc(Cl)c(C#N)c1C1CN(C(C)CO)C1 (stereo partly drawn)
17 | < 0.01 | COc1c([C@@H](C)n2nc(C(F)F)c3c(N)ncnc32)cc(Cl)c(F)c1C1CN(CCO)C1 (single isomer, unassigned)
18 | < 0.01 | CCOc1c([C@@H](C)n2nc(C)c3c(N)ncnc32)cc(Cl)c(F)c1C1CN(C(C)C)C1 (single isomer, unassigned)
